From patent US6852863B2, “Metabolites of (3-{[4-tert-butyl-benzyl)-(pyridine-3-sulfonyl)-amino]-methyl}-phenoxy)-acetic acid” (Pfizer Inc., priority 2002, dated 2005)

How the values were obtained:
[1] = target: T1, rat EP2 prostaglandin E2 receptor (Rattus norvegicus, UniProt Q62928); assay: Rat EP2 receptor binding assay (displacement of 3H-prostaglandin E2); conditions: 293S cell membranes expressing rat EP2, 3 nM 3H-prostaglandin E2, 1 hour at 25° C.
T1 construct: This full length receptor is used to prepare 293S cells expressing the EP2 receptor; expressed in transfected cells; membranes used in the assay
T1 sequence (Q62928 whole entry): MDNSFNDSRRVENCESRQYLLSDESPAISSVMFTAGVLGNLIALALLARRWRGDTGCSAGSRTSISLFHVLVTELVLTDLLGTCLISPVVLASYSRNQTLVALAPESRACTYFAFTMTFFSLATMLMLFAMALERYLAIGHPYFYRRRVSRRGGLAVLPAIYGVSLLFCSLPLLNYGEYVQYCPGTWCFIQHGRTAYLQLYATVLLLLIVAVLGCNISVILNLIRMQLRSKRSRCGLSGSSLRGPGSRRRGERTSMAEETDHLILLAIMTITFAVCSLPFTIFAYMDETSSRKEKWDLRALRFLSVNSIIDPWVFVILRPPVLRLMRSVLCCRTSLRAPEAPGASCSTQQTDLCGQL
Source text: Rat EP2 Recptor Binding Assay
Assay for Binding to Prostaglandin E2 Receptors
The full length EP2 receptor is made as disclosed in Nemoto et al., Prostaglandins and other Lipid Mediators, 1997, 54, 713-725. This full length receptor is used to prepare 293S cells expressing the EP2 receptor.
293S cells expressing the rat EP2 prostaglandin E2 receptor are generated according to methods known to those skilled in the art. Typically, PCR (polymerase chain reaction) primers corresponding to the 5′ and 3′ ends of the published full length receptor are made according to the well known methods disclosed above and are used in an RT-PCR reaction using the total RNA from rat kidney as a source. […]
Membrane Preparation: All operations are performed at 4° C. […] Pelleted membranes are resuspended to 3-10 mg protein per ml, protein concentration being determined of the method of Bradford [Bradford, M., Anal. Biochem., 72, 248 (1976)]. […]
Binding Assay: Frozen membranes prepared as above are thawed and diluted to 1 mg protein per ml in Buffer A above. […] To determine the amount of ^3H-prostaglandin bound to the membranes, the dried filters are placed into plastic bags with scintillation fluid and counted in a LKB 1205 Betaplate reader (Wallac, Gaithersburg, Md.). […]

[2] = Metabolism of 14C-parent in rat liver microsomes; type: in vitro ADME; conditions: 20 μM 14C-parent, NADPH, 30 minutes, 37° C.; HPLC radiochromatogram peak
Method: (§1) Human (HL-mix 12), rat, monkey and dog liver microsomes were prepared by differential centrifugation using standard procedures. Prior to use, liver microsomes were thawed on ice and reconstituted using 100 mM potassium phosphate pH 7.4. [^14C]-(3-{[4-tert-butyl-benzyl)-(pyridine-3-sulfonyl)-amino]-methyl}-phenoxy)-acetic acid was dissolved 100 mM potassium phosphate pH 7.4 at a final substrate concentration of 20 μM. Samples were pre-incubated for 3 min with microsomes (CYP 450; 0.5 μM) at 37° C. in a shaking water bath. Incubations were initiated with the addition of 100 μl cofactor (1.1 mM NADPH, 10 mM MgCl2) per 1 ml of incubation mixture. Incubations were stopped after 30 minutes by the addition of an equal volume of cold acetonitrile.
(§2) Metabolite quantification was performed by measuring the areas of individually separated HPLC peaks using the β-RAM (IN/US, Win-flow). […]
(§3) Identification of the metabolites was performed using a Finnigan TSQ 7000 triple quadrupole mass spectrometer equipped with an API-2 electrospray interface. […] The β-RAM response was recorded as a real time analog signal by the MS data collection system. The collected data from the radioactivity and MS detectors were separated by the dwell volume of flow from the MS to the radioactivity detector (corresponding to a dwell time of about 0.2 min.). […]

[3] = Metabolism of 14C-parent in monkey liver microsomes; type: in vitro ADME; conditions: 20 μM 14C-parent, NADPH, 30 minutes, 37° C.; HPLC radiochromatogram peak
Method: as §1, §2, §3

[4] = tested on: Dog hepatocytes; assay: Metabolism of parent in dog hepatocytes; type: in vitro ADME, Beagle dogs; conditions: 20 μM parent, 2 million cells per ml, 4 hours, 37° C.
Method: (§4) Human hepatocytes were generated from a mix of 3 livers. Rat and monkey hepatocytes were generated using Sprague Dawley rats (12 livers), Cynomolgus monkey (1 liver) and Beagle dogs (2 livers). Cryopreserved hepatocytes were suspended in William's E media with 10% FBS to a viable count of 2 million cells per ml and gassed with 95/5 O2/CO2 initially and every hour of incubations. After the addition of 20 μM (3-{[4-tert-butyl-benzyl)-(pyridine-3-sulfonyl)-amino]-methyl}-phenoxy)-acetic acid to a 25 ml Erlenmeyer flask, 2.5 ml of hepatocytes suspension was added and incubated for 4 hours at 37° C. in a shaking water bath.
(§5) Metabolite quantification was performed by measuring the areas of individually separated HPLC peaks using the β-RAM (IN/US, Win-flow). The β-RAM provided integrated peak representation printouts in CPM as well as the percentage of the radiolabeled material. The β-RAM was operated using a solid scintillation cell.
Incubations were stopped by the addition of an equal volume of cold acetonitrile, sonicated and centrifuged at 3000 rpm for 10 minutes. The supernatants were removed and evaporated to dryness under nitrogen. Residues were reconstituted in 50:50 (acetonitrile: water) and aliquots (50-90 μl) were injected onto the HPLC system for analysis.
The HPLC system consisted of a HP-1100 solvent delivery system, a HP-1100 membrane degasser, a HP-1100 autoinjector (Hewlett Packard) and an IN/US radioactive monitor (β-RAM). Chromatography was performed on a YMC AQ (C-18) column (4.6 mm×150 mm, 3 μm) (Waters, Milford, Mass.). […]
as §3

[5] = Metabolism of 14C-parent in dog liver microsomes; type: in vitro ADME; conditions: 20 μM 14C-parent, NADPH, 30 minutes, 37° C.; HPLC radiochromatogram peak
Method: as §1, §2, §3

[6] = tested on: Monkey hepatocytes; assay: Metabolism of parent in monkey hepatocytes; type: in vitro ADME, Cynomolgus monkey; conditions: 20 μM parent, 2 million cells per ml, 4 hours, 37° C.; mobile phase pH 5.0
Method: as §4
as §5, with “cell. […]” for “cell.”
as §3

[7] = tested on: Rat hepatocytes; assay: Metabolism of parent in rat hepatocytes; type: in vitro ADME, Sprague Dawley rats; conditions: 20 μM parent, 2 million cells per ml, 4 hours, 37° C.
Method: as §4
as §5, with “cell. […]” for “cell.”
as §3

| Compound | Percent of Radioactivity, Dog hepatocytes [4] [%] | Percent of Radioactivity, Rat hepatocytes [7] [%] | further results |
| --- | --- | --- | --- |
| CC(C)(C(=O)O)c1ccc(CN(Cc2cccc(OCC(=O)O)c2)S(=O)(=O)c2cccnc2)cc1 [Metabolite M3, 2-(4-{[(3-carboxymethoxy-benzyl)-(pyridine-3-sulfonyl)-amino]-methyl}-phenyl)-2-methyl-propionic acid] |  |  | IC50 [1]: 750 nM |
| CC(C)(C(=O)O)c1ccc(CNS(=O)(=O)c2cccnc2)cc1 [Metabolite M11, 2-methyl-2-{4-[(pyridine-3-sulfonylamino)-methyl]-phenyl}-propionic acid] |  |  | Percent of Radioactivity, Rat liver microsomes [2]: 20.7%; Percent of Radioactivity, Monkey liver microsomes [3]: 7.97% |
| CC(C)(C)c1ccc(CN(Cc2ccc(O)c(OCC(=O)O)c2)S(=O)(=O)c2cccnc2)cc1 [Metabolite M12, (5-{[(4-tert-butyl-benzyl)-(pyridine-3-sulfonyl)-amino]-methyl}-hydroxy-phenoxy)-acetic acid] | 15.0 |  |  |
| CC(C)(C)c1ccc(CNS(=O)(=O)c2cccnc2)cc1 [Metabolite M20, pyridine-3-sulfonic acid 4-tert-butyl-benzylamide] |  |  | Percent of Radioactivity, Dog liver microsomes [5]: 1.96% |
| CC(C)(CO)c1ccc(CNS(=O)(=O)c2cccnc2)cc1 [Metabolite M21, pyridine-3-sulfonic acid 4-(2-hydroxy-1,1-dimethyl-ethyl)-benzylamide] | 7.92 | 8.91 | Percent of Radioactivity, Monkey hepatocytes [6]: 4.53% |
| dihydroxy (3-{[4-tert-butyl-benzyl)-(pyridine-3-sulfonyl)-amino]-methyl}-phenoxy)-acetic acid [Metabolite M2] | 6.59 | 15.1 |  |
